Source: ChEMBL document CHEMBL1201862, “PubChem BioAssay data set” (2004)
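Values below derive from 48-hour exposures of cells grown in 96-well plates, with endpoints linearly interpolated between the two concentrations bracketing the appropriate inhibition level. The concentration for 50% growth inhibition is given as GI50.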 Active and inactive are the calls of the source. Cut-off read from the data, not from the text of the source: active = GI50 up to about 1.1 µM and inactive = higher.

Columns and labels:
Test in all cases: NCI anticancer screen, dose series, 48 h
OVCAR-3 = tested on: OVCAR-3
RXF 393 = tested on: RXF 393
SK-OV-3 = tested on: SK-OV-3
LOX IMVI = tested on: LOX IMVI
TK-10 = tested on: TK-10
K562 = tested on: K562
M14 = tested on: M14
HCC 2998 = tested on: HCC 2998
NCI-H522 = tested on: NCI-H522
OVCAR-8 = tested on: OVCAR-8
SK-MEL-5 = tested on: SK-MEL-5
A498 = tested on: A498
KM12 = tested on: KM12
SF-295 = tested on: SF-295
COLO 205 = tested on: COLO 205
SF-539 = tested on: SF-539
IGROV-1 = tested on: IGROV-1
HOP-62 = tested on: HOP-62
EKVX = tested on: EKVX
KM-20L2 = tested on: KM-20L2

| Compound | GI50 (OVCAR-3) | GI50 (RXF 393) | GI50 (SK-OV-3) | GI50 (LOX IMVI) | GI50 (TK-10) | GI50 (K562) | GI50 (M14) | GI50 (HCC 2998) | GI50 (NCI-H522) | GI50 (OVCAR-8) | GI50 (SK-MEL-5) | GI50 (A498) | GI50 (KM12) | GI50 (SF-295) | GI50 (COLO 205) | GI50 (SF-539) | GI50 (IGROV-1) | GI50 (HOP-62) | GI50 (EKVX) | GI50 (KM-20L2) |
| --- | --- | --- | --- | --- | --- | --- | --- | --- | --- | --- | --- | --- | --- | --- | --- | --- | --- | --- | --- | --- |
| O=C1C=CC(=O)c2ncccc21 | 1.3 µM (inactive) | 6.01 µM (inactive) | 12.2 µM (inactive) | 2.09 µM (inactive) | 6.28 µM (inactive) | 2.32 µM (inactive) | 3.68 µM (inactive) | 7.26 µM (inactive) | 1.89 µM (inactive) | 9.04 µM (inactive) | 6.5 µM (inactive) | 13.8 µM (inactive) | 12.1 µM (inactive) | 7.6 µM (inactive) | 2.58 µM (inactive) | 7.98 µM (inactive) | 5.07 µM (inactive) | 5.11 µM (inactive) | 3.37 µM (inactive) |  |
| c1ccc(Sc2nc(Sc3ccccc3)nc(Sc3ccccc3)n2)cc1 | 13.3 µM (inactive) | 61.7 µM (inactive) | > 100 µM (inactive) | > 100 µM (inactive) | 44.6 µM (inactive) | > 100 µM (inactive) | > 100 µM (inactive) | 18.1 µM (inactive) | 97.1 µM (inactive) |  | > 100 µM (inactive) | 29.9 µM (inactive) | 13.9 µM (inactive) | 63.7 µM (inactive) | 18.6 µM (inactive) | 31.7 µM (inactive) |  | 35.7 µM (inactive) | 35 µM (inactive) |  |
| O=C(Nc1cccc2c1[nH]c1c(-c3ccccc3)nccc12)c1ccccc1[N+](=O)[O-] |  | 12.6 µM (inactive) |  | 24.5 µM (inactive) | 33 µM (inactive) | 21.9 µM (inactive) | 34.1 µM (inactive) | 18.6 µM (inactive) |  | 24.8 µM (inactive) |  | 7.76 µM (inactive) | 9.55 µM (inactive) | 7.13 µM (inactive) | 26.2 µM (inactive) | 20.2 µM (inactive) | 54.5 µM (inactive) |  | 50.9 µM (inactive) | 11.2 µM (inactive) |
| Nc1nc(=O)n(C2OC(CO)C(O)C2O)cc1F (centres undefined) | > 100 µM (inactive) | 43.5 µM (inactive) | > 100 µM (inactive) | 0.297 µM (active) |  | 0.506 µM (active) |  | > 100 µM (inactive) | 0.785 µM (active) | 0.222 µM (active) |  | > 100 µM (inactive) | > 100 µM (inactive) | 21.8 µM (inactive) | 79.4 µM (inactive) | 37.4 µM (inactive) | > 100 µM (inactive) | 0.228 µM (active) |  | 2.29 µM (inactive) |
| c1ccc(P(CCP(c2ccccn2)c2ccccn2)c2ccccc2)cc1 | < 0.0172 µM (active) | 19.8 µM (inactive) | 48.9 µM (inactive) | 0.038 µM (active) | 26.5 µM (inactive) | 0.0783 µM (active) | 19.6 µM (inactive) | 3.37 µM (inactive) | 0.0314 µM (active) | 0.108 µM (active) | 21.5 µM (inactive) | 12.8 µM (inactive) | 0.286 µM (active) | 0.497 µM (active) | 0.341 µM (active) | 0.577 µM (active) | < 0.01 µM (active) | 0.0268 µM (active) | 0.689 µM (active) |  |
| C=CCCC1(C)CCCNC1=S (centres undefined) | > 100 µM (inactive) | > 100 µM (inactive) | > 100 µM (inactive) | > 100 µM (inactive) | > 100 µM (inactive) | > 100 µM (inactive) | > 100 µM (inactive) | > 100 µM (inactive) |  | > 100 µM (inactive) | > 100 µM (inactive) | > 100 µM (inactive) | > 100 µM (inactive) | > 100 µM (inactive) | 37.7 µM (inactive) | > 100 µM (inactive) | > 100 µM (inactive) | > 100 µM (inactive) | > 100 µM (inactive) | > 100 µM (inactive) |
| COc1ccc(NC(=O)/C(Cc2cc(=O)oc3cc(O)ccc23)=N\NC(C)(C)C)c(OC)c1 | > 100 µM (inactive) |  | > 100 µM (inactive) | > 100 µM (inactive) | > 100 µM (inactive) | > 100 µM (inactive) | > 100 µM (inactive) | > 100 µM (inactive) | > 100 µM (inactive) | > 100 µM (inactive) | > 100 µM (inactive) | 22.8 µM (inactive) | > 100 µM (inactive) | > 100 µM (inactive) | > 100 µM (inactive) | > 100 µM (inactive) | > 100 µM (inactive) | > 100 µM (inactive) | 12.6 µM (inactive) | > 100 µM (inactive) |
| S=C1NN=C2C(=C3CCCC4C5CCCCC5N2C34)N1 (centres undefined) | > 100 µM (inactive) |  | > 100 µM (inactive) | 56.4 µM (inactive) | > 100 µM (inactive) | 38 µM (inactive) | > 100 µM (inactive) |  | 62.2 µM (inactive) | > 100 µM (inactive) | 82.6 µM (inactive) |  | > 100 µM (inactive) | > 100 µM (inactive) | 33 µM (inactive) |  | > 100 µM (inactive) | > 100 µM (inactive) |  |  |
| COc1nc2ccc(Cl)c(C(O)c3ccccc3)c2nc1OC (centres undefined) | 24.1 µM (inactive) | 14.3 µM (inactive) |  | 17.5 µM (inactive) | 37.2 µM (inactive) | 18.6 µM (inactive) | 17.2 µM (inactive) |  | 15.7 µM (inactive) | 29 µM (inactive) | 15.6 µM (inactive) | 18.6 µM (inactive) | 29.9 µM (inactive) | 10.5 µM (inactive) | 18.1 µM (inactive) | 18.3 µM (inactive) | 24.8 µM (inactive) | 16.5 µM (inactive) | 18.2 µM (inactive) |  |
| COc1ccc(/C=C2\CCC(C)C3C2=NN(c2ccccc2)C3c2ccc(OC)c(OC)c2)cc1OC (centres undefined) | 5.04 µM (inactive) | 3.23 µM (inactive) | 4.23 µM (inactive) | 2.49 µM (inactive) | 3.22 µM (inactive) | 2.01 µM (inactive) | 4.66 µM (inactive) |  |  | 3.28 µM (inactive) | 3.61 µM (inactive) | 3.42 µM (inactive) | 2.46 µM (inactive) | 2.64 µM (inactive) | 4.22 µM (inactive) | 2.48 µM (inactive) | 2.32 µM (inactive) |  | 1.74 µM (inactive) |  |
| CCC12CCC[C@@]13C=C[C@H](O3)C(C)(C)C2=O (some centres undefined) | > 100 µM (inactive) | > 100 µM (inactive) | > 100 µM (inactive) | > 100 µM (inactive) | > 100 µM (inactive) | > 100 µM (inactive) | > 100 µM (inactive) | > 100 µM (inactive) | > 100 µM (inactive) | > 100 µM (inactive) | > 100 µM (inactive) |  |  | > 100 µM (inactive) |  | > 100 µM (inactive) | > 100 µM (inactive) | > 100 µM (inactive) | > 100 µM (inactive) | > 100 µM (inactive) |
| COc1ccc(-c2oc3cc(O)cc(O)c3c(=O)c2OC)cc1 [ERMANIN] | 21 µM (inactive) |  | 4.66 µM (inactive) | 38.2 µM (inactive) | 39.9 µM (inactive) | 9.79 µM (inactive) | 37.2 µM (inactive) | 26 µM (inactive) | 2.48 µM (inactive) | 44.1 µM (inactive) | 16.7 µM (inactive) | 24.4 µM (inactive) |  | 26.6 µM (inactive) | 20.7 µM (inactive) |  | 28.3 µM (inactive) | 26.6 µM (inactive) | 51.2 µM (inactive) |  |
